{"source": "patent US20260207623A1", "about": "“USE OF ESTETROL IN HEPATICALLY IMPAIRED PATIENTS” (ESTETRA SRL, priority 2022, published 2026)", "origin": "cited, not measured here", "conditions": "mass balance study in humans; cited from earlier work"}
{"smiles": "C[C@]12CC[C@@H]3c4ccc(O)cc4CC[C@H]3[C@@H]1[C@@H](O)[C@@H](O)[C@@H]2O", "note": "[E4, 1,3,5 (10)-estratrien-3,15alpha, 16alpha, 17beta-tetrol]", "values": [{"measurement": "contribution of hepatic elimination to the overall elimination", "result": "approximately 20%"}]}
